Experimental data from ChEMBL document CHEMBL1153281, “Synthesis and evaluation of aniline headgroups for alkynyl thienopyrimidine dual EGFR/ErbB-2 kinase inhibitors” (Bioorg Med Chem Lett, 2009).

Assays:
[1] = test system: HN5; assay: Antiproliferative activity against human HN5 cells overexpressing EGFR after 3 days; assay type: functional, cell-based; conditions: HN5, 72 h
[2] = test system: BT-474; assay: Antiproliferative activity against human BT474 cells overexpressing ErbB2 after 3 days; assay type: functional, cell-based; conditions: BT-474, 72 h
[3] = target: T1, Receptor tyrosine-protein kinase erbB-2 (Homo sapiens, UniProt P04626); assay: Inhibition of ErbB2 by SPA assay
T1 sequence (P04626 whole entry): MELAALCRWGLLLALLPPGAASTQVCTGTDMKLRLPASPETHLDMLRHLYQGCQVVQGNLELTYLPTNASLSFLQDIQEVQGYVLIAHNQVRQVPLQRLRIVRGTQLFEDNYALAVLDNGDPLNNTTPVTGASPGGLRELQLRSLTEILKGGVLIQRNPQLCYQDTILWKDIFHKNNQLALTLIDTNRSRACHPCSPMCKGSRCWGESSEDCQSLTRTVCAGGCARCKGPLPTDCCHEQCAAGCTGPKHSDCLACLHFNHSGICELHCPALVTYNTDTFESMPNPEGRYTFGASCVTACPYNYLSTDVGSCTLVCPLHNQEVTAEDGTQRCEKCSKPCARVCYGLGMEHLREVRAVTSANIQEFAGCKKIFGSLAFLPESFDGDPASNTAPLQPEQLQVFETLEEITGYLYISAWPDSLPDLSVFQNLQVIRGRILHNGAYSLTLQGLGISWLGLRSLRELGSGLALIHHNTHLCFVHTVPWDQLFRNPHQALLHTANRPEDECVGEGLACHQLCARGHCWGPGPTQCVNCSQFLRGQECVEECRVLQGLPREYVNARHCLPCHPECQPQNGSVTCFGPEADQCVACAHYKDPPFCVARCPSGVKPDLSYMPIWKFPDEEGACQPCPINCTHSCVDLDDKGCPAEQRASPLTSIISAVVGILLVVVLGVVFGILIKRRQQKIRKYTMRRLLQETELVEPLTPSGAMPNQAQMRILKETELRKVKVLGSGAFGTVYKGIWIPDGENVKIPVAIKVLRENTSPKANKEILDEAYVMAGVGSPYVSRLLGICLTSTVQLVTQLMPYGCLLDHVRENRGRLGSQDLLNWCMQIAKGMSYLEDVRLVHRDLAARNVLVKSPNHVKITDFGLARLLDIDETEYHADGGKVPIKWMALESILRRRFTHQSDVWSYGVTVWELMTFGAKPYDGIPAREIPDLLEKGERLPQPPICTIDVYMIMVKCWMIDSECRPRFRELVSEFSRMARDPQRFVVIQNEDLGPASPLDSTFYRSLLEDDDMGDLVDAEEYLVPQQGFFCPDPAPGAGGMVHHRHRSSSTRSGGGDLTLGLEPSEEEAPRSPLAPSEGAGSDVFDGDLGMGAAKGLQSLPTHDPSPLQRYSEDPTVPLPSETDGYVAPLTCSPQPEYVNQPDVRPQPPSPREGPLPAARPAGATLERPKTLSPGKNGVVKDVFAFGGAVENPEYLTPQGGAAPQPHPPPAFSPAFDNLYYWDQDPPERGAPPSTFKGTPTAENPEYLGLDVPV

[4] = test system: HFF; assay: cells; assay type: ADME, cell-based; conditions: Homo sapiens
[5] = target: T1, Receptor tyrosine-protein kinase erbB-2; assay: Inhibition of ErbB2 by HTRF assay
[6] = target: T2, Epidermal growth factor receptor (Homo sapiens, UniProt P00533)
T2 sequence (P00533 whole entry): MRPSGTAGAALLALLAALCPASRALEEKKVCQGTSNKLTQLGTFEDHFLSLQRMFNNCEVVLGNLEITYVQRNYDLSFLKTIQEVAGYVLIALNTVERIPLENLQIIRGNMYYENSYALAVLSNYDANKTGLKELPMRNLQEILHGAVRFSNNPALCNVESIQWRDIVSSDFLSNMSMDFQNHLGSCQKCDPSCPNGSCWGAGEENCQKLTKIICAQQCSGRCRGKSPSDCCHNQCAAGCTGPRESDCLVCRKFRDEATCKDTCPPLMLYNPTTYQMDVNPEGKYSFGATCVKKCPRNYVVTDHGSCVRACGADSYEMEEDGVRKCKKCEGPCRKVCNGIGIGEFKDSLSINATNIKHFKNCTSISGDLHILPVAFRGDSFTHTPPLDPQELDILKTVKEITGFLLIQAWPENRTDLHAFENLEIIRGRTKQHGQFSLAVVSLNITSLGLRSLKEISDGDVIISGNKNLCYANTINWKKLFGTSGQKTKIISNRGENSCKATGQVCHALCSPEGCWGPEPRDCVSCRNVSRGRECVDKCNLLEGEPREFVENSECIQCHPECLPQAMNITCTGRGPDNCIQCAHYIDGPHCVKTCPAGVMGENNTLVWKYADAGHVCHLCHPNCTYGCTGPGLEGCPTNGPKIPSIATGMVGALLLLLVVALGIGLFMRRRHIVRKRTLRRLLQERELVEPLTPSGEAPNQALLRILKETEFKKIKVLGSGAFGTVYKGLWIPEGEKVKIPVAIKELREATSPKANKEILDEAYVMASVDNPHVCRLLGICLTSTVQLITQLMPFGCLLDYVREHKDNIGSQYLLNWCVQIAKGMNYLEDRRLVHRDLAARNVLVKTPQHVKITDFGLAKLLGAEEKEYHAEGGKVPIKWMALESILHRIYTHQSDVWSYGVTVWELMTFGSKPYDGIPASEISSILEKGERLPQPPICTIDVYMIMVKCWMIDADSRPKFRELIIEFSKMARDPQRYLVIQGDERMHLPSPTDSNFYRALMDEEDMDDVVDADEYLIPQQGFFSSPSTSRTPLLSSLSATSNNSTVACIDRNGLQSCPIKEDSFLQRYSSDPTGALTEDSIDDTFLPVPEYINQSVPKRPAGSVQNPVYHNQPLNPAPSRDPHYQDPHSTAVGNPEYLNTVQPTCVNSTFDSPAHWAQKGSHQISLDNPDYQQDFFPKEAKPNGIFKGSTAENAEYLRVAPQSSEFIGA
Description: Inhibition of EGFR by HTRF assay

[7] = target: T2, Epidermal growth factor receptor; assay: Inhibition of EGFR by SPA assay
[8] = Protein binding in rat plasma by HPLC; assay type: ADME, cell-free; conditions: read-out: PPB (converted)
[9] = test system: Mus musculus; assay: Dose normalized AUC in mouse at 10 mg/kg, po after 6 hrs; assay type: ADME, organism-based; design: time < 6 hr, dose 10 mg/kg, route oral; conditions: in vivo
[10] = test system: HN5; assay: Ratio of IC50 for human HN5 cells to IC50 for hman BT474 cells; assay type: functional

Row | Structure (SMILES) | IC50 [2] | IC50 [3] | IC50 [5] | IC50 [6] | IC50 [7] | fraction unbound [8] | AUC [9] | IC50 [1] | IC50 [4] | Ratio IC50 [10]
1 | O=C(O[C@H]1CN[C@H](C#Cc2cc3ncnc(Nc4ccc(OCc5cccc(F)c5)nc4)c3s2)C1)N1CCOCC1 | 250 nM | – | 450 nM | 2600 nM | – | – | – | 490 nM | > 1000 nM | –
2 | O=C(O[C@H]1CN[C@H](C#Cc2cc3ncnc(Nc4ccc5c(Oc6ccccn6)cccc5c4)c3s2)C1)N1CCOCC1 | 100 nM | – | 260 nM | 1050 nM | – | – | – | 120 nM | > 1000 nM | –
3 | O=C(O[C@H]1CN[C@H](C#Cc2cc3ncnc(Nc4ccc(Oc5ccccn5)c(Cl)c4)c3s2)C1)N1CCOCC1 | 80 nM | 60 nM | – | – | – | 0.033 | 52 ng·h/mL/mg/kg | 280 nM | > 1000 nM | –
4 | O=C(O[C@H]1CN[C@H](C#Cc2cc3ncnc(Nc4ccc(Cc5ccccc5)cc4)c3s2)C1)N1CCOCC1 | 70 nM | – | – | 240 nM | – | 0.036 | – | 270 nM | > 1000 nM | –
5 | Cc1cc(Oc2ccc(Nc3ncnc4cc(C#C[C@@H]5C[C@@H](OC(=O)N6CCOCC6)CN5)sc34)cc2Cl)no1 | 130 nM | – | 370 nM | 400 nM | – | – | – | 1450 nM | > 1000 nM | –
6 | O=C(O[C@H]1CN[C@H](C#Cc2cc3ncnc(Nc4ccc5c(ccn5Cc5ccccc5)c4)c3s2)C1)N1CCOCC1 | 110 nM | – | 60 nM | 90 nM | – | – | – | 190 nM | > 1000 nM | –
7 | O=C(O[C@H]1CN[C@H](C#Cc2cc3ncnc(Nc4ccc5c(cnn5Cc5ccccc5)c4)c3s2)C1)N1CCOCC1 | 20 nM | – | 50 nM | 80 nM | – | 0.027 | 98 ng·h/mL/mg/kg | 70 nM | > 1000 nM | –
8 | O=C(O[C@H]1CN[C@H](C#Cc2cc3ncnc(Nc4ccc(OCc5cscn5)c(Cl)c4)c3s2)C1)N1CCOCC1 | 70 nM | – | 60 nM | 120 nM | – | 0.051 | – | 440 nM | > 1000 nM | –
9 | O=C(O[C@H]1CN[C@H](C#Cc2cc3ncnc(Nc4ccc5c(cnn5Cc5cccc(F)c5)c4)c3s2)C1)N1CCOCC1 | – | – | – | – | – | 0.05 | 51 ng·h/mL/mg/kg | 70 nM | > 1000 nM | –
10 | O=C(O[C@H]1CN[C@H](C#Cc2cc3ncnc(Nc4ccc(OCc5cccc(F)c5)c(Cl)c4)c3s2)C1)N1CCOCC1 [GW869810X] | 90 nM | – | – | – | – | 0.02 | 91 ng·h/mL/mg/kg | 260 nM | > 1000 nM | –

The remaining molecules from weak to strong by IC50 [2], led by results:

Row | IC50 [2] | IC50 [3] | IC50 [5] | IC50 [6] | IC50 [7] | fraction unbound [8] | AUC [9] | Structure (SMILES) | IC50 [1] | IC50 [4] | Ratio IC50 [10]
11 | 4850 nM | 2660 nM | – | – | – | – | – | O=C(O[C@H]1CN[C@H](C#Cc2cc3ncnc(Nc4ccc5c(ccn5CCc5ccccc5)c4)c3s2)C1)N1CCOCC1 | 2020 nM | > 1000 nM | –
12 | 150 nM | – | 800 nM | 630 nM | – | 0.024 | – | O=C(O[C@H]1CN[C@H](C#Cc2cc3ncnc(Nc4ccc(Sc5cccc(F)c5)c(Cl)c4)c3s2)C1)N1CCOCC1 | 310 nM | > 1000 nM | –
13 | 140 nM | – | 180 nM | 280 nM | – | 0.03 | – | O=C(O[C@H]1CN[C@H](C#Cc2cc3ncnc(Nc4ccc(Oc5ccnc6ccc(F)cc56)c(Cl)c4)c3s2)C1)N1CCOCC1 | 390 nM | > 1000 nM | –
14 | 130 nM | – | 130 nM | 120 nM | – | – | – | CC(c1cccc(F)c1)n1ncc2cc(Nc3ncnc4cc(C#C[C@@H]5C[C@@H](OC(=O)N6CCOCC6)CN5)sc34)ccc21 (stereo partly specified) | 70 nM | > 1000 nM | –
15 | 120 nM | – | 180 nM | 680 nM | – | – | – | O=C(O[C@H]1CN[C@H](C#Cc2cc3ncnc(Nc4ccc5c(ccn5Cc5cscn5)c4)c3s2)C1)N1CCOCC1 | 550 nM | > 1000 nM | –
16 | 120 nM | 120 nM | – | – | 150 nM | – | – | O=C(O[C@H]1CN[C@H](C#Cc2cc3ncnc(Nc4ccc5c(ccn5S(=O)(=O)c5ccsc5)c4)c3s2)C1)N1CCOCC1 | 630 nM | > 1000 nM | –
17 | 120 nM | – | 210 nM | 240 nM | – | – | – | O=C(O[C@H]1CN[C@H](C#Cc2cc3ncnc(Nc4ccc5c(c4)c(F)cn5Cc4ccccc4)c3s2)C1)N1CCOCC1 | 320 nM | > 1000 nM | –
18 | 110 nM | – | 85 nM | 230 nM | – | – | – | O=C(O[C@H]1CN[C@H](C#Cc2cc3ncnc(Nc4ccc5c(cnn5S(=O)(=O)c5cccc(F)c5)c4)c3s2)C1)N1CCOCC1 | 540 nM | > 1000 nM | –
19 | 100 nM | – | 220 nM | 1650 nM | – | – | – | O=C(O[C@H]1CN[C@H](C#Cc2cc3ncnc(Nc4ccc(Sc5ccccn5)cc4)c3s2)C1)N1CCOCC1 | 380 nM | > 1000 nM | –
20 | 60 nM | 30 nM | – | – | – | 0.031 | 120 ng·h/mL/mg/kg | O=C(O[C@H]1CN[C@H](C#Cc2cc3ncnc(Nc4ccc(OCc5ccccn5)c(Cl)c4)c3s2)C1)N1CCOCC1 | 240 nM | > 1000 nM | –
21 | 10 nM | – | 35 nM | 33 nM | – | – | – | O=C(O[C@H]1CN[C@H](C#Cc2cc3ncnc(Nc4ccc5c(cnn5Cc5cc(F)ccc5F)c4)c3s2)C1)N1CCOCC1 | 250 nM | > 1000 nM | 20
